From PubChem BioAssay AID2060885 (Molecular Pharmacology Branch, DTP, NCI, 2025)

Tested on: NCI-H23 complex spheroids with HUVEC/MSC, viability
Assay: Anticancer human tumor NCI-H23 cell line growth inhibition [RAS];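 also: spheroids exposed to compound for 7 days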;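 as to viability, T/C: 100% = DMSO vehicle control viability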
Conditions: for IC50: curve of first compound; for viability, T/C: stronger effect = lower value
Method in brief: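 Multi-cell-type spheroids: tumor cells plus HUVEC endothelial cells and mesenchymal stem cells. RAS-pathway inhibitors were combined with targeted agents, each dosed in half-log steps down from clinical Cmax, or from 10 microM when Cmax was unknown.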

[1] = second compound 0.00316 µM, first compound 0.00316 µM
[2] = second compound 0.00316 µM, first compound 0.01 µM
[3] = second compound 0.00316 µM, first compound 0.0316 µM
[4] = second compound 0.00316 µM, first compound 0.1 µM
[5] = second compound 0.00316 µM, first compound 0.316 µM
[6] = second compound 0.00316 µM, first compound 1 µM
[7] = second compound 0.01 µM, first compound 0.00316 µM
[8] = second compound 0.01 µM, first compound 0.01 µM
[9] = second compound 0.01 µM, first compound 0.0316 µM
[10] = second compound 0.01 µM, first compound 0.1 µM
[11] = second compound 0.01 µM, first compound 0.316 µM
[12] = second compound 0.01 µM, first compound 1 µM
[13] = second compound 0.0316 µM, first compound 0.00316 µM
[14] = second compound 0.0316 µM, first compound 0.01 µM
[15] = second compound 0.0316 µM, first compound 0.0316 µM
[16] = second compound 0.0316 µM, first compound 0.1 µM
[17] = second compound 0.0316 µM, first compound 0.316 µM
[18] = second compound 0.0316 µM, first compound 1 µM
[19] = second compound 0.1 µM, first compound 0.00316 µM
[20] = second compound 0.1 µM, first compound 0.01 µM
[21] = second compound 0.1 µM, first compound 0.0316 µM
[22] = second compound 0.1 µM, first compound 0.1 µM
[23] = second compound 0.1 µM, first compound 0.316 µM
[24] = second compound 0.1 µM, first compound 1 µM
[25] = second compound 0.316 µM, first compound 0.00316 µM
[26] = second compound 0.316 µM, first compound 0.01 µM
[27] = second compound 0.316 µM, first compound 0.0316 µM
[28] = second compound 0.316 µM, first compound 0.1 µM
[29] = second compound 0.316 µM, first compound 0.316 µM
[30] = second compound 0.316 µM, first compound 1 µM
[31] = second compound 1 µM, first compound 0.00316 µM
[32] = second compound 1 µM, first compound 0.01 µM
[33] = second compound 1 µM, first compound 0.0316 µM
[34] = second compound 1 µM, first compound 0.1 µM
[35] = second compound 1 µM, first compound 0.316 µM
[36] = second compound 1 µM, first compound 1 µM

SMILES: C=CC(=O)Nc1cc(Nc2nccc(-c3cn(C)c4ccccc34)n2)c(OC)cc1N(C)CCN(C)C + C=CC(=O)N1CCN(c2nc(OCC3CCCN3C)nc3c(F)c(-c4nc(N)cc(C)c4C(F)(F)F)c(Cl)cc23)C(C)C1
- IC50 (second compound 0.00316 µM): 1000 nM
- IC50 (second compound 0.01 µM): 7.6 nM
- IC50 (second compound 0.0316 µM): 3.62 nM
- IC50 (second compound 0.1 µM): < 3.16 nM
- IC50 (second compound 0.316 µM): < 3.16 nM
- IC50 (second compound 1 µM): < 3.16 nM
- viability, T/C [1]: 66.1%
- viability, T/C [2]: 83.2%
- viability, T/C [3]: 56.1%
- viability, T/C [4]: 53.5%
- viability, T/C [5]: 57.2%
- viability, T/C [6]: 49.6%
- viability, T/C [7]: 51.5%
- viability, T/C [8]: 52.9%
- viability, T/C [9]: 45.1%
- viability, T/C [10]: 36.9%
- viability, T/C [11]: 43.1%
- viability, T/C [12]: 37.1%
- viability, T/C [13]: 49.4%
- viability, T/C [14]: 48.3%
- viability, T/C [15]: 40.4%
- viability, T/C [16]: 35.2%
- viability, T/C [17]: 37.1%
- viability, T/C [18]: 33.6%
- viability, T/C [19]: 45%
- viability, T/C [20]: 39.4%
- viability, T/C [21]: 33.8%
- viability, T/C [22]: 34.4%
- viability, T/C [23]: 29.6%
- viability, T/C [24]: 27.3%
- viability, T/C [25]: 44.7%
- viability, T/C [26]: 43%
- viability, T/C [27]: 34%
- viability, T/C [28]: 32%
- viability, T/C [29]: 29.4%
- viability, T/C [30]: 35.5%
- viability, T/C [31]: 39.2%
- viability, T/C [32]: 41.5%
- viability, T/C [33]: 36.9%
- viability, T/C [34]: 34.9%
- viability, T/C [35]: 30.9%
- viability, T/C [36]: 28.3%

SMILES: CC(Nc1ccc2c(c1)OCCn1cc(N3C(=O)OCC3C(F)F)nc1-2)C(N)=O (stereo unspecified) + C=CC(=O)N1CCN(c2nc(OCC3CCCN3C)nc3c(F)c(-c4nc(N)cc(C)c4C(F)(F)F)c(Cl)cc23)C(C)C1
- IC50 (second compound 0.00316 µM): 142 nM
- IC50 (second compound 0.01 µM): < 31.6 nM
- IC50 (second compound 0.0316 µM): < 31.6 nM
- IC50 (second compound 0.1 µM): < 31.6 nM
- IC50 (second compound 0.316 µM): < 31.6 nM
- IC50 (second compound 1 µM): < 31.6 nM
- viability, T/C [3]: 51.2%
- viability, T/C [4]: 60.2%
- viability, T/C [5]: 34.6%
- viability, T/C [6]: 39.1%
- viability, T/C (second compound 0.00316 µM, first compound 3.16 µM): 35.8%
- viability, T/C (second compound 0.00316 µM, first compound 10 µM): 38.3%
- viability, T/C [9]: 43.8%
- viability, T/C [10]: 40.7%
- viability, T/C [11]: 35.9%
- viability, T/C [12]: 28.7%
- viability, T/C (second compound 0.01 µM, first compound 3.16 µM): 31%
- viability, T/C (second compound 0.01 µM, first compound 10 µM): 26.5%
- viability, T/C [15]: 36.4%
- viability, T/C [16]: 35.5%
- viability, T/C [17]: 27.2%
- viability, T/C [18]: 27.3%
- viability, T/C (second compound 0.0316 µM, first compound 3.16 µM): 24.8%
- viability, T/C (second compound 0.0316 µM, first compound 10 µM): 23.3%
- viability, T/C [21]: 31.4%
- viability, T/C [22]: 29.3%
- viability, T/C [23]: 26.4%
- viability, T/C [24]: 27.6%
- viability, T/C (second compound 0.1 µM, first compound 3.16 µM): 22.9%
- viability, T/C (second compound 0.1 µM, first compound 10 µM): 22.4%
- viability, T/C [27]: 28.7%
- viability, T/C [28]: 31.2%
- viability, T/C [29]: 30%
- viability, T/C [30]: 23.7%
- viability, T/C (second compound 0.316 µM, first compound 3.16 µM): 25.9%
- viability, T/C (second compound 0.316 µM, first compound 10 µM): 24.3%
- viability, T/C [33]: 33%
- viability, T/C [34]: 33.5%
- viability, T/C [35]: 28.8%
- viability, T/C [36]: 22.5%
- viability, T/C (second compound 1 µM, first compound 3.16 µM): 27.8%
- viability, T/C (second compound 1 µM, first compound 10 µM): 25%

SMILES: O=C(c1ccc(F)c(F)c1Nc1ccc(I)cc1F)N1CC(O)([C@@H]2CCCCN2)C1 + C=CC(=O)N1CCN(c2nc(OCC3CCCN3C)nc3c(F)c(-c4nc(N)cc(C)c4C(F)(F)F)c(Cl)cc23)C(C)C1
- IC50 (second compound 0.00316 µM): 43.5 nM
- IC50 (second compound 0.01 µM): 4.49 nM
- IC50 (second compound 0.0316 µM): < 3.16 nM
- IC50 (second compound 0.1 µM): < 3.16 nM
- IC50 (second compound 0.316 µM): < 3.16 nM
- IC50 (second compound 1 µM): < 3.16 nM
- viability, T/C [1]: 58.7%
- viability, T/C [2]: 61%
- viability, T/C [3]: 52.9%
- viability, T/C [4]: 40.7%
- viability, T/C [5]: 29.3%
- viability, T/C [6]: 16.8%
- viability, T/C [7]: 50.9%
- viability, T/C [8]: 50.1%
- viability, T/C [9]: 41.1%
- viability, T/C [10]: 40%
- viability, T/C [11]: 28.6%
- viability, T/C [12]: 14.9%
- viability, T/C [13]: 44.7%
- viability, T/C [14]: 48.9%
- viability, T/C [15]: 37.2%
- viability, T/C [16]: 32.4%
- viability, T/C [17]: 24%
- viability, T/C [18]: 11.8%
- viability, T/C [19]: 37.1%
- viability, T/C [20]: 40.2%
- viability, T/C [21]: 33.3%
- viability, T/C [22]: 28.9%
- viability, T/C [23]: 24%
- viability, T/C [24]: 13.4%
- viability, T/C [25]: 40%
- viability, T/C [26]: 37.5%
- viability, T/C [27]: 30.6%
- viability, T/C [28]: 28%
- viability, T/C [29]: 21.2%
- viability, T/C [30]: 13.7%
- viability, T/C [31]: 39%
- viability, T/C [32]: 38.4%
- viability, T/C [33]: 31.4%
- viability, T/C [34]: 32.7%
- viability, T/C [35]: 24.2%
- viability, T/C [36]: 12.6%
